Test results from ChEMBL document CHEMBL5579851, “Synthesis and antifungal evaluation of novel triazole derivatives bearing a pyrazole-methoxyl moiety” (Eur J Med Chem, 2024).
Converted amounts (≈) assume the structure as drawn. The source made the active and inactive calls. The rule behind the calls is not given here.

What was measured:
[1] = system: Pichia kudriavzevii; test: Antifungal activity against Candida krusei 4996 assessed as inhibition of fungal growth incubated for 48 hrs by CLSI based broth microdilution assay; type: functional
[2] = system: Candida albicans; test: Antifungal activity against Candida albicans SC5314 assessed as inhibition of fungal growth at 2 ug/ml after 36 hrs by TECAN plate reader analysis; type: functional, organism-based; conditions: dose 2.0 µg/ml
[3] = system: [Candida] auris; test: Antifungal activity against fluconazole-resistant Candida auris 919 assessed as inhibition of fungal growth incubated for 48 hrs by CLSI based broth microdilution assay; type: functional; conditions: Candidozyma auris
[4] = system: Nakaseomyces glabratus; test: Antifungal activity against Candida glabrata 537 assessed as inhibition of fungal growth incubated for 48 hrs by CLSI based broth microdilution assay; type: functional
[5] = target: T1, Lanosterol 14-alpha demethylase (Candida albicans (strain SC5314 / ATCC MYA-2876) (Yeast), UniProt P10613); test: Inhibition of CYP51 in Candida albicans SC5314 assessed as ergosterol level at 0.5 ug/ml after 8 hrs by GC-MS analysis (reference value: 86.2 %); set-up: scale not given: the % may be the effect or the level left; conditions: at 0.5 µg/mL
T1 sequence (P10613 whole entry): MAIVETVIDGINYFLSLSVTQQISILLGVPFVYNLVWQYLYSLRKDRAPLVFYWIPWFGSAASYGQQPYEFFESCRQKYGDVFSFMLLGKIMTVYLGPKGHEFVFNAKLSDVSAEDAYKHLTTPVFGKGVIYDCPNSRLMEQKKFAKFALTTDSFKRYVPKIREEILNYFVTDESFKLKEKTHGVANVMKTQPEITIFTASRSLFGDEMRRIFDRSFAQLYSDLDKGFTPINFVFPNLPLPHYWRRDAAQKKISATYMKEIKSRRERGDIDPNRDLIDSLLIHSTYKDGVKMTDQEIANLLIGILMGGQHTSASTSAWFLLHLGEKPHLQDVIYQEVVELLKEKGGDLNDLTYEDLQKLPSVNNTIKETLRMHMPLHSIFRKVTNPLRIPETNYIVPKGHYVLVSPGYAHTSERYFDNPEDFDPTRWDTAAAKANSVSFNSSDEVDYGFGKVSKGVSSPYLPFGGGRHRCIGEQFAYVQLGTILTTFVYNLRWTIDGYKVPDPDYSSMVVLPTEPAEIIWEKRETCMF

[6] = system: Cell membrane; test: Induction of membrane permeabilization in Candida albicans SC5314 assessed as increase in fluorescence at 0.5 ug/ml incubated for 8 hrs by propidium iodide staining based fluorescence microscopic analysis; conditions: dose 0.5 µg/ml
[7] = system: Candida albicans; test: Antifungal activity against fluconazole-resistant Candida albicans 904 assessed as inhibition of fungal growth incubated for 48 hrs by CLSI based broth microdilution assay; type: functional
[8] = system: Saccharomyces cerevisiae; test: Antifungal activity against recombinant Saccharomyces cerevisiae Y2513 overexpressing ScErg11 Y140H mutant assessed as inhibition of fungal growth incubated for 48 hrs by CLSI based broth microdilution assay; type: functional
[9] = target: T1, Lanosterol 14-alpha demethylase; test: Inhibition of CYP51 in Candida albicans SC5314 assessed as obtusifoliol level at 0.5 ug/ml after 8 hrs by GC-MS analysis relative to control; set-up: scale not given: the % may be the effect or the level left; conditions: at 0.5 µg/mL
[10] = system: Candida albicans; test: Antifungal activity against Candida albicans SC5314 assessed as inhibition of fungal growth at 0.125 ug/ml after 12 hrs by TECAN plate reader analysis; type: functional, organism-based; conditions: dose 0.125 µg/ml
[11] = system: Saccharomyces cerevisiae; test: Antifungal activity against recombinant Saccharomyces cerevisiae Y2768 overexpressing CauErg11 T132F mutant assessed as inhibition of fungal growth incubated for 48 hrs by CLSI based broth microdilution assay; type: functional
[12] = system: Candida albicans; test: Antifungal activity against Candida albicans SC5314 assessed as inhibition of fungal growth incubated for 48 hrs by CLSI based broth microdilution assay; type: functional
[13] = system: Saccharomyces cerevisiae; test: Antifungal activity against recombinant Saccharomyces cerevisiae Y2711 overexpressing CnErg11 assessed as inhibition of fungal growth incubated for 48 hrs by CLSI based broth microdilution assay; type: functional
[14] = system: Candida albicans; test: Antibiofilm activity against Candida albicans SC5314 assessed as increase in matured biofilm distruption at 64 ug/ml incubated for 24 hrs by XTT assay relative to control; type: functional; conditions: dose 64 µg/ml
[15] = system: [Candida] auris; test: Antifungal activity against fluconazole-resistant Candida auris 891 assessed as inhibition of fungal growth incubated for 48 hrs by CLSI based broth microdilution assay; type: functional; conditions: Candidozyma auris
[16] = Cytotoxicity against HUVEC cells assessed as cell viability at 128 ug/ml incubated for 24 hrs by CCK-8 assay relative to control; type: toxicity, cell-based; conditions: human, at 128 µg/mL, read-out: Activity
[17] = system: Saccharomyces cerevisiae; test: Antifungal activity against recombinant Saccharomyces cerevisiae Y2411 overexpressing ScErg11 assessed as inhibition of fungal growth incubated for 48 hrs by CLSI based broth microdilution assay; type: functional
[18] = system: Saccharomyces cerevisiae; test: Antifungal activity against recombinant Saccharomyces cerevisiae Y2765 overexpressing CauMdr1 assessed as inhibition of fungal growth incubated for 48 hrs by CLSI based broth microdilution assay; type: functional
[19] = system: [Candida] auris; test: Antifungal activity against fluconazole-resistant Candida auris 918 assessed as inhibition of fungal growth incubated for 48 hrs by CLSI based broth microdilution assay; type: functional; conditions: Candidozyma auris
[20] = system: Candida parapsilosis; test: Antifungal activity against Candida parapsilosis 22019 assessed as inhibition of fungal growth incubated for 48 hrs by CLSI based broth microdilution assay; type: functional; conditions: Lodderomyces parapsilosis
[21] = system: Candida albicans; test: Antifungal activity against Candida albicans SC5314 assessed as inhibition of hyphae length at 1 ug/ml after 3 hrs by inverted microscopic analysis; type: functional, organism-based; conditions: dose 1.0 µg/ml
[22] = system: Candida albicans; test: Antifungal activity against Candida albicans SC5314 assessed as inhibition of hyphae formation at 0.0625 to 0.5 ug/ml after 3 hrs by inverted microscopic analysis; type: functional, organism-based; conditions: dose 0.0625-0.5 µg/ml
[23] = system: Saccharomyces cerevisiae; test: Antifungal activity against recombinant Saccharomyces cerevisiae Y2300 overexpressing ScErg11 assessed as inhibition of fungal growth incubated for 48 hrs by CLSI based broth microdilution assay; type: functional
[24] = system: Cell membrane; test: Induction of membrane permeabilization in Candida albicans SC5314 assessed as increase in fluorescence at 4 ug/ml incubated for 8 hrs by propidium iodide staining based fluorescence microscopic analysis; conditions: dose 4.0 µg/ml
[25] = system: Cryptococcus neoformans; test: Antifungal activity against Cryptococcus neoformans 32609 assessed as inhibition of fungal growth incubated for 72 hrs by CLSI based broth microdilution assay; type: functional
[26] = system: Saccharomyces cerevisiae; test: Antifungal activity against recombinant Saccharomyces cerevisiae Y2374 overexpressing CgErg11 assessed as inhibition of fungal growth incubated for 48 hrs by CLSI based broth microdilution assay; type: functional
[27] = system: Saccharomyces cerevisiae; test: Antifungal activity against recombinant Saccharomyces cerevisiae Y2462 overexpressing ScErg11/ScNcp1 assessed as inhibition of fungal growth incubated for 48 hrs by CLSI based broth microdilution assay; type: functional
[28] = system: Candida albicans; test: Antibiofilm activity against Candida albicans SC5314 assessed as inhibition of biofilm formation at 64 ug/mL incubated for 24 hrs by XTT assay relative to control; type: functional
[29] = system: Saccharomyces cerevisiae; test: Antifungal activity against recombinant Saccharomyces cerevisiae Y525 overexpressing CaMdr1 assessed as inhibition of fungal growth incubated for 48 hrs by CLSI based broth microdilution assay; type: functional
[30] = system: Saccharomyces cerevisiae; test: Antifungal activity against recombinant Saccharomyces cerevisiae Y2301 overexpressing ScErg11 Y140F mutant assessed as inhibition of fungal growth incubated for 48 hrs by CLSI based broth microdilution assay; type: functional
[31] = system: Candida albicans; test: Antifungal activity against fluconazole-resistant Candida albicans 901 assessed as inhibition of fungal growth incubated for 48 hrs by CLSI based broth microdilution assay; type: functional
[32] = system: Saccharomyces cerevisiae; test: Antifungal activity against recombinant Saccharomyces cerevisiae Y2721 overexpressing CpErg11/CpCpr assessed as inhibition of fungal growth incubated for 48 hrs by CLSI based broth microdilution assay; type: functional
[33] = system: Candida tropicalis; test: Antifungal activity against Candida tropicalis 8915 assessed as inhibition of fungal growth incubated for 48 hrs by CLSI based broth microdilution assay; type: functional
[34] = system: Saccharomyces cerevisiae; test: Antifungal activity against recombinant Saccharomyces cerevisiae Y2716 overexpressing CpErg11 Y132F mutant/ CpCpr assessed as inhibition of fungal growth incubated for 48 hrs by CLSI based broth microdilution assay; type: functional
[35] = target: T1, Lanosterol 14-alpha demethylase; test: Inhibition of CYP51 in Candida albicans SC5314 assessed as lanosterol level at 0.5 ug/ml after 8 hrs by GC-MS analysis (reference value: 5.9 %); set-up: scale not given: the % may be the effect or the level left; conditions: at 0.5 µg/mL
[36] = system: Saccharomyces cerevisiae; test: Antifungal activity against recombinant Saccharomyces cerevisiae Y2459 overexpressing CaErg11/CaCpr assessed as inhibition of fungal growth incubated for 48 hrs by CLSI based broth microdilution assay; type: functional
[37] = system: Candida albicans; test: Antifungal activity against Candida albicans SC5314 assessed as inhibition of hyphae length at 0.0625 to 0.5 ug/ml after 3 hrs by inverted microscopic analysis; type: functional, organism-based; conditions: dose 0.0625-0.5 µg/ml
[38] = system: Saccharomyces cerevisiae; test: Antifungal activity against recombinant Saccharomyces cerevisiae Y570 overexpressing CaCdr1 assessed as inhibition of fungal growth incubated for 48 hrs by CLSI based broth microdilution assay; type: functional
[39] = system: Saccharomyces cerevisiae; test: Antifungal activity against recombinant Saccharomyces cerevisiae Y2766 overexpressing CauCdr1 assessed as inhibition of fungal growth incubated for 48 hrs by CLSI based broth microdilution assay; type: functional
[40] = system: Saccharomyces cerevisiae; test: Antifungal activity against recombinant Saccharomyces cerevisiae Y2767 overexpressing CauErg11 assessed as inhibition of fungal growth incubated for 48 hrs by CLSI based broth microdilution assay; type: functional
[41] = system: Candida albicans; test: Antifungal activity against Candida albicans 10231 assessed as inhibition of fungal growth incubated for 48 hrs by CLSI based broth microdilution assay; type: functional
[42] = target: T1, Lanosterol 14-alpha demethylase; test: Inhibition of CYP51 in Candida albicans SC5314 assessed as 14alpha-methylfecosterol level at 0.5 ug/ml after 8 hrs by GC-MS analysis relative to control; set-up: scale not given: the % may be the effect or the level left; conditions: at 0.5 µg/mL
[43] = system: Saccharomyces cerevisiae; test: Antifungal activity against recombinant Saccharomyces cerevisiae Y2769 overexpressing CauErg11 K143R mutant assessed as inhibition of fungal growth incubated for 48 hrs by CLSI based broth microdilution assay; type: functional
[44] = target: T1, Lanosterol 14-alpha demethylase; test: Inhibition of CYP51 in Candida albicans SC5314 assessed as eburicol level at 0.5 ug/ml after 8 hrs by GC-MS analysis relative to control; set-up: scale not given: the % may be the effect or the level left; conditions: at 0.5 µg/mL
[45] = system: Candida albicans; test: Antifungal activity against Candida albicans SC5314 assessed as inhibition of hyphae formation by measuring pseudohyphae at 1 ug/ml after 3 hrs by inverted microscopic analysis; type: functional, organism-based; conditions: dose 1.0 µg/ml

In the case of `OC(Cn1cncn1)(Cn1cncn1)c1ccc(F)cc1F` [FLUCONAZOLE], the MIC [1] is reported as 64 µg/mL (≈ 209 µM), the inhibition [2] is reported as “inactive” and the MIC [3] is reported as over 256 µg/mL. For the same compound, the MIC [4] was 1 µg/mL (≈ 3.27 µM), the Activity [5] was 39.8% and the Activity [6] was “inactive”. It also gave an MIC [7] of over 256 µg/mL, an MIC [8] of 4 µg/mL and an Activity [9] of 2%. For the same compound, the inhibition [10] was “inactive”, the MIC [11] was 64 µg/mL and the MIC [12] was 0.5 µg/mL (≈ 1.63 µM). It also gave an MIC [13] of 0.5 µg/mL, an Activity [14] of 38% and an MIC [15] of over 256 µg/mL. The viability at 24 h, 128 ug/ml [16] was 83%, the MIC [17] was 1 µg/mL and the MIC [18] was 64 µg/mL. The MIC [19] was over 256 µg/mL, the MIC [20] was 4 µg/mL (≈ 13.1 µM) and the inhibition [21] was “Active”. The inhibition [22] was “inactive”, the MIC [23] was 4 µg/mL and the Activity [24] was “Active”. For the same compound, the MIC [25] was 2 µg/mL (≈ 6.53 µM), the MIC [26] was 4 µg/mL and the MIC [27] was 8 µg/mL. For the same compound, the inhibition at 64 µg/mL [28] was about 28%, the MIC [29] was over 64 µg/mL and the MIC [30] was 4 µg/mL. The MIC [31] was over 256 µg/mL, the MIC [32] was 4 µg/mL and the MIC [33] was over 64 µg/mL. It also gave an MIC [34] of 8 µg/mL, an Activity [35] of 38% and an MIC [36] of 2 µg/mL. For the same compound, the inhibition [37] was “inactive”, the MIC [38] was over 64 µg/mL and the MIC [39] was over 64 µg/mL. The MIC [40] was 4 µg/mL, the MIC [41] was over 64 µg/mL and the Activity [42] was 20%. For the same compound, the MIC [43] was 32 µg/mL, the Activity [44] was 2% and the inhibition [45] was “Active”.
